Measured values as given in US20110245228A1, “PROTEIN KINASE C ACTIVITY ENHANCER CONTAINING ALKYL ETHER DERIVATIVE OR SALT THEREOF” (Toyama Chemical Co., Ltd., priority 2006, published 2011).

Target: T1, PKCε (Rattus norvegicus, UniProt P09216)
T1 construct: endogenous in cells; host or cells: primary cultured cerebral cortex cells from 18-day Wistar/ST rat fetuses
T1 sequence (P09216 1-737): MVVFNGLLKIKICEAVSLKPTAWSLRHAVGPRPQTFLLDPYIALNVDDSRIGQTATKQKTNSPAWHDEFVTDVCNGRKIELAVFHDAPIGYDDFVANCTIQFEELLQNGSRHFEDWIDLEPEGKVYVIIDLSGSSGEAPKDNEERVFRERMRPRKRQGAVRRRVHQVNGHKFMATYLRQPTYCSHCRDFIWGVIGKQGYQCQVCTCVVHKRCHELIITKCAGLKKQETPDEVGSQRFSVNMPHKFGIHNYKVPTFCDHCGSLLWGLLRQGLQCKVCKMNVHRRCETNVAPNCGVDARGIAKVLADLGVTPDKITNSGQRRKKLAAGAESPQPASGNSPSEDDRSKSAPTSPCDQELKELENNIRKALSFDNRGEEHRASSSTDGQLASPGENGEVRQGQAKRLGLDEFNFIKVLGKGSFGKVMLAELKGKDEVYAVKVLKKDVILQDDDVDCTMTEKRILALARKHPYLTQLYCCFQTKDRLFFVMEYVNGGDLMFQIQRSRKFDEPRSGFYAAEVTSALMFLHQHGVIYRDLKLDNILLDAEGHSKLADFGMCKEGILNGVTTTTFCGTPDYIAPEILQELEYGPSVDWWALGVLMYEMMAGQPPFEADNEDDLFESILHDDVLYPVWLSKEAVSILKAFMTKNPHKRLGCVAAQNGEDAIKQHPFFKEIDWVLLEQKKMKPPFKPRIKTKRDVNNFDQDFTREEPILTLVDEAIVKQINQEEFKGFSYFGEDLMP
Assay: PKC activity enhancing effect in cultured cells (PKCε migration from cytosol to membrane fraction, western blotting)
Format: cell-based
Settings: cultured cerebral cortex cells of Wistar/ST rat fetuses, 0.1 μmol/L in terms of T-817
Method: The PKC activity was determined, according to the method of Etcheberrigaray et al. (Proceedings of the National Academy of Sciences of the United States of America, 2004, Vol. 101, No. 30, p. 11141-11146), as applicable. At the time of activation, PKC migrates from the cytoplasm to membranes. The PKC level in the membrane fraction over that in the cytosol fraction was taken as the index of PKC activation. In this experiment, the activity of PKCε, a known isoform of PKC, was measured.
Cultured cells were prepared following the method of Hirata et al. (J. Pharmacol. Exp. Ther., 2005, Vol. 314, No. 1, p. 252-259). […]
On Day 8 from the start of the culturing, T-817MA was added to the cells to a final concentration of 0.1 μmol/L, in terms of T-817. […] The protein concentration in the cytosol fraction and the membrane fraction was measured, and the protein content in each sample was adjusted to a certain constant level with the extraction buffer or the extraction buffer containing Triton X-100. […] Then, after washing with PBST, the membrane was treated with ECL plus reagent (manufactured by GE Healthcare Bio-Sciences) and the luminescence was detected by a Lumino Image Analyzer. […]

PKCε migration from the cytoplasm to membranes (index of PKC activation) (2 hours after treatment): migrated from the cytoplasm to membranes
PKCε migration from the cytoplasm to membranes (index of PKC activation) (4 hours after treatment): migrated from the cytoplasm to membranes
Structure (SMILES): OC1CN(CCCOCCc2ccc3sccc3c2)C1 [T-817MA, 1-(3-(2-(1-benzothiophen-5-yl)ethoxy)propyl)azetidin-3-ol]
